Tests used:
[1] = test system: HCT-15; assay: MTT cell viability assay on HCT-15 (supplement); assay type: cell-based; conditions: 20 to 80 μM, 24 or 48 h, supplementary figure
Method: Figure S11. TFBPC and glycyrrhizic acid micelles (GAM)-encapsulated TFBPC […]
NSG mice (N = 16) with implantation of MDA-MB-231 cells on the left flank were intraperitoneally administrated with PBS (5 mL/kg), TFBPC (5 mg/kg) or glycyrrhizic acid micelles (GAM)-encapsulated TFBPC (5 mg/kg) once per week and four times total in the whole course of treatment. Tumor volume of each animal was measured by caliper for monitoring its tumor growth and then sacrificed 49 days after the first dose of treatment. Mean ± SD. **** p < 0.0001. […]
colorectal cancers. Cisplatin and three platinum-based analogues, including (4, 4-3F) PtCl2 (A), TFBPC (B) and (4, 4-5F) PtCl2 (C), were assessed for cell viability using MTT assay. MDA-MB-231 breast cancers cells (D), COLO205 (E) and HCT-15 (F) colorectal cancer cells were given various concentrations of cisplatin or analogues ranging from 20 to 80 μM for 24 or 48 h. Results were shown in mean ± SD and statistically analyzed by one-way ANOVA and Tukey’s post hoc test. * p < 0.05, ** p < 0.01, *** p < 0.001, **** p < 0.0001. […]

[2] = HE staining of major organs (CDX model); assay type: in vivo, mice; conditions: xenograft model
Source text: Formalin-fixed and paraffin-embedded 4 μm sections of tumor and organs from cell-bearing xenograft models were stained in hematoxylin and eosin to provide an overall morphology of tissues. Tumor sections were dewaxed with UltraClear™ (J.T.Baker, Phillipsburg, NJ, USA), rehydrated in a descending series of alcohol and water and had antigens unmasked in pH 6 or pH 9 Epitope Retrieval Solution (Leica Biosystems Inc., Wetzlar, Germany) in a microwave pressure cooker. […] VisUCyte HRP Polymer Antibody against rabbit IgG (VC003-025; R&D Systems, Minneapolis, MN, USA) and mouse IgG (VC001-025; R&D Systems, Minneapolis, MN, USA) were targeted to primary antibodies. Liquid DAB+ system from Agilent Technologies (Santa Clara, CA, USA) was applied as a chromogen for visualizing. Slides were mounted after hematoxylin counterstaining. All images were scanned using Motic EasyScan Pro 6 pathology slide scanner (Motic China Group Co., Ltd., Hong Kong, China).

[3] = test system: MDA-MB-231 cells; assay: Reactive oxygen species detection (DCF-DA, flow cytometry); assay type: cell-based, human; conditions: MDA-MB-231, 8 h
Method: DCF-DA is highly fluorescent and can label ROS for quantitative assessment using flow cytometer with excitation/emission at 485 nm/535 nm. To harvest and collect adherent and suspended cells, we first collected suspended cells from supernatant by centrifuging at 3000 rpm for 5 min at 4 °C and then adding trypsin to detach these adherent cells in the 6-well plate, followed by removing suspended cells via centrifugation. Both cell pellets after centrifugation were collected and re-suspended in PBS for subsequent quantitative analysis of ROS productions from cells treated either with CDDP or TFBPC using flow cytometer by gating the positive area in the histogram.

[4] = biological target: bovine serum albumin (BSA) (Bos taurus, UniProt P02769); assay: UV-Vis spectrum of BSA-drug complex; assay type: binding; conditions: 250 μM BSA in PBS pH 7.4, 20-640 μM
Source text: Absorption between the wavelengths of 220 nm and 500 nm was detected by measuring absorbance every 2 nm via Thermo Varioskan Flash microplate reader (Thermo Fisher Scientific Inc., Waltham, MA, USA). The maximal absorbance of BSA at 278 nm was marked to highlight the spectrum in pure BSA without chemical intercalation.

Sequence of bovine serum albumin (BSA) (P02769 25-607): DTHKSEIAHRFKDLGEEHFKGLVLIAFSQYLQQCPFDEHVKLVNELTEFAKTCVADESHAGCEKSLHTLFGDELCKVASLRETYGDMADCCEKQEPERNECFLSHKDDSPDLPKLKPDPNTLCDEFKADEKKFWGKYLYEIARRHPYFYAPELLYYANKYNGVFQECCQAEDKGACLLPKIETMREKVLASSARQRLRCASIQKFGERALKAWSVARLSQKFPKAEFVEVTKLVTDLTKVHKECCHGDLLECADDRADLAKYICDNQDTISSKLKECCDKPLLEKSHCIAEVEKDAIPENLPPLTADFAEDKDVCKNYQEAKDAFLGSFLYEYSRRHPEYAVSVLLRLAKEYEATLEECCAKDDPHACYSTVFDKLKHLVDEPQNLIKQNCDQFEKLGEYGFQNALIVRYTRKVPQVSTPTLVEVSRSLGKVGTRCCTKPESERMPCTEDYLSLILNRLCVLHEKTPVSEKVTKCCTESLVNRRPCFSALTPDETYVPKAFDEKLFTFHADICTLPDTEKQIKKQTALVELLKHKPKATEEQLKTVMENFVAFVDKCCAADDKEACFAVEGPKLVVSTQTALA

## FC(F)C(F)(F)COCc1ccnc(-c2cc(COCC(F)(F)C(F)F)ccn2)c1.[Cl][Pt][Cl] [TFBPC]
[1]
  cell viability of HCT-15 cells: statistically reduced cell viability
[2]
  pathophysiological changes in heart, kidneys, liver, lungs and spleen (HE staining): No obvious pathophysiological changes
[3]
  ROS production: apparent increase in ROS production
[4]
  UV absorbance of BSA at 278 nm vs. concentration: positively correlated
